Test results: patent publication US6528532B1, “Urea derivatives as HIV aspartyl protease inhibitors” (Pharmacor Inc., priority 2002, dated 2003)

Test system: not listed separately
Test: in vitro
Assay type: cell-based
Settings: human
Method: To evaluate the EC50 of our compounds, various drug concentrations are incubated with the infected cell for six days and then the metabolic activity of the cells is monitored by the MTT assay. (See A. J. Japour et al, Antimicrobial Agents and Chemotherapy, 37, 1095-1101, 1993 and R. Pauwels et al. Journal of Virological Methods, 20, 309-321, 1988).
We use the laboratory viral strain NL4.3 as wild type virus and the cell line used is MT-4 which is a T-cell line highly sensitive to HIV-1. We also use some WT clinical strains. To address the resistance issue we assay the inhibitors with NL4.3 mutants which are designed to be resistant to specific commercially available inhibitors.
The same MTT assay is used to evaluate the CCIC50 (cell culture IC50) of our compounds except that the virus is omitted.

`Cc1ccc(S(=O)(=O)N(CC(C)C)[C@H](CO)CCCCNC(=O)N(Cc2ccccc2)Cc2ccc([N+](=O)[O-])cc2)cc1` [Example 61, (2S) 2-N-Isobutyl-2-N-(4-methylbenzenesulfonyl)-6-N-[N′-benzyl-N′-(4-nitrobenzyl)aminocarbonyl]-2,6-diaminohexanol] and `Cc1ccc(S(=O)(=O)N(CC(C)C)[C@H](CO)CCCCNC(=O)N(Cc2ccccc2)Cc2cccc([N+](=O)[O-])c2)cc1` [Example 60, (2S) 2-N-Isobutyl-2-N-(4-methylbenzenesulfonyl)-6-N-[N′-benzyl-N′-(3-nitrobenzyl)aminocarbonyl]-2,6-diaminohexanol] are within 1.5-fold of each other in IC50 at 6 days: 5.1 µM for the first, 4.6 µM for the second.

Going from `CC(C)CN([C@H](CO)CCCCNC(=O)N(Cc1ccc(F)cc1)Cc1ccc2c(c1)OCO2)S(=O)(=O)c1ccc(N)cc1` [Example 67, (2S) 2-N-(4-Aminobenzenesulfonyl)-2-N-isobutyl-6-N-[N′-(4-fluorobenzyl)-N′-piperonylaminocarbonyl]-2,6-diaminohexanol] to `CC(C)CCN([C@H](CO)CCCCNC(=O)N(Cc1ccc(F)cc1)Cc1ccc2c(c1)OCO2)S(=O)(=O)c1ccc(N)cc1` [Example 102, (2S) 2-N-(4-Aminobenzenesulfonyl)-2-N-(3-methylbutyl)-6-N-[N′-(4-fluorobenzyl)-N′-piperonylaminocarbonyl]-2,6-diaminohexanol], the IC50 at 6 days rises from 11 µM to 24.4 µM (2.2-fold).

First: CC(C)CN([C@H](CO)CCCCNC(=O)N(Cc1ccccc1)Cc1ccc2c(c1)OCO2)S(=O)(=O)c1ccc(N)cc1 [Example 82, (2S) 2-N-(4-Aminobenzenesulfonyl)-2-N-isobutyl-6-N-(N′-benzyl-N′-piperonylaminocarbonyl)-2,6-diaminohexanol]
Second: CC(C)CCN([C@H](CO)CCCCNC(=O)N(Cc1ccncc1)Cc1ccc2c(c1)OCO2)S(=O)(=O)c1ccc(N)cc1 [Example 95, (2S) 2-N-(4-Aminobenzenesulfonyl)-2-N-(3-methylbutyl)-6-N-[N′-(4-picolyl)-N′-piperonylaminocarbonyl]-2,6-diaminohexanol]
The IC50 at 6 days of the first is 2.3-fold lower: 12.5 µM for the first, 28.8 µM for the second.

`COc1cc(CN(Cc2ccc3c(c2)OCO3)C(=S)NCCCC[C@@H](CO)N(CCC(C)C)S(=O)(=O)c2ccc(N)cc2)cc(OC)c1OC` [Example 107, (2S) 2-N-(4-Aminobenzenesulfonyl)-2-N-(3-methylbutyl)-6-N-[N′-(3,4,5-trimethoxybenzyl)-N′-piperonylaminothiocarbonyl]-2,6-diaminohexanol] showed an IC50 at 6 days of 10.7 µM.

Molecular target: HIV protease (Human immunodeficiency virus type 1 group M subtype B, UniProt P04585)
Test: Enzymatic (FRET fluorometric) assay for determining the inhibition constant (Ki) of compounds targeting the HIV protease
Assay type: biochemical
Settings: FRET substrate (EDANS/DABCYL), equation of Henderson; read-out: Ki
Excerpt: Enzymatic Assay for Determining the Inhibition Constant (Ki) of Synthetic Compounds Targeting the HIV Protease
This is a fluorometric assay based on the cleavage by protease of a substrate carrying a donor group (EDANS) and an acceptor group (DABCYL) on each side of the cleavage site, interacting together through fluorescence resonance energy transfer (FRET) as described by Matayoshi et al. (Science 247:[…], 1990).
After calculation of Vo and Vi, the inhibition constant (Ki) of the compound is determined using the equation of Henderson: [formula]
where Vo=the enzyme's initial velocity
Vi=the enzyme velocity in the presence of the inhibitory compound,
[I]=inhibitor concentration, [S]=substrate concentration,
Km=Michaelis-Menten constant and Kiapp=apparent Ki
Graphs are traced and the Ki determined using GraphPad Prism software v. 3.0.

First: CC(C)CN([C@@H](CCCCNC(=O)N(Cc1ccccc1)Cc1ccncc1)C(=O)O)S(=O)(=O)c1ccc(N)cc1 [Example 48, Nα-(4-Aminobenzenesulfonyl)-Nα-isobutyl-Nε-[N′-benzyl-N′-(4-picolyl)aminocarbonyl]-L-lysine]
Second: CC(C)CN([C@@H](CCCCNC(=O)N(Cc1ccccc1)Cc1ccccc1)C(=O)O)S(=O)(=O)c1ccc(N)cc1 [Example 36, Nα-(4-Aminobenzenesulfonyl)-Nα-isobutyl-Nε-(N′,N′-dibenzylaminocarbonyl)-L-lysine]
The Ki of the first is 6.7-fold higher: 0.012 µM for the first, 0.0018 µM for the second. The second binds more tightly here.

First: CC(C)CN([C@H](CO)CCCCNC(=O)N(Cc1ccc2c(c1)OCO2)Cc1cccs1)S(=O)(=O)c1ccc(N)cc1 [Example 75, (2S) 2-N-(4-Aminobenzenesulfonyl)-2-N-isobutyl-6-N-[N′-(2-thiophenemethyl)-N′-piperonylaminocarbonyl]-2,6-diaminohexanol]
Second: CCC(C)CN(C(CO)CCCCNC(=O)N(Cc1ccc2c(c1)OCO2)Cc1cccs1)S(=O)(=O)c1ccc(N)cc1 [Example 99, (2S) 2-N-(4-Aminobenzenesulfonyl)-2-N-(2-methylbutyl)-6-N-[N′-(2-thiophenemethyl)-N′-piperonylaminocarbonyl]-2,6-diaminohexanol]
The Ki of the first is 12-fold lower: 0.002 µM for the first, 0.024 µM for the second.

First: Cc1ccc(S(=O)(=O)N(CC(C)C)[C@@H](CCCCNC(=O)N(Cc2ccccc2)Cc2ccc([N+](=O)[O-])cc2)C(=O)O)cc1 [Example 56, Nα-Isobutyl-Nα-(4-methylbenzenesulfonyl)-Nε-[N′-benzyl-N′-(4-nitrobenzyl)aminocarbonyl]-L-lysine]
Second: Cc1ccc(S(=O)(=O)N(CC(C)C)[C@@H](CCCCNC(=O)N(Cc2ccccc2)Cc2cccnc2)C(=O)O)cc1 [Example 42, Nα-Isobutyl-Nα-(4-methylbenzenesulfonyl)-Nε-[N′-benzyl-N′-(3-picolyl)aminocarbonyl]-L-lysine]
The Ki of the first is 2.5-fold lower: 0.0015 µM for the first, 0.0037 µM for the second. The first binds more tightly here.

`CC(C)CN([C@H](CO)CCCCNC(=O)N(Cc1ccc(C(F)(F)F)cc1)Cc1ccc2c(c1)OCO2)S(=O)(=O)c1ccc(N)cc1` [Example 92, (2S) 2-N-(4-Aminobenzenesulfonyl)-2-N-isobutyl-6-N-[N′-(4-trifluoromethylbenzyl)-N′-piperonylaminocarbonyl]-2,6-diaminohexanol] and `CC(C)CN([C@H](CO)CCCCNC(=O)N(Cc1ccc([N+](=O)[O-])cc1)Cc1ccc2c(c1)OCO2)S(=O)(=O)c1ccc(N)cc1` [Example 84, (2S) 2-N-(4-Aminobenzenesulfonyl)-2-N-isobutyl-6-N-[N′-(4-nitrobenzyl)-N′-piperonylaminocarbonyl]-2,6-diaminohexanol] are within 1.5-fold of each other in Ki: 0.0025 µM for the first, 0.002 µM for the second.

First: Cc1ccc(S(=O)(=O)N(CC(C)C)[C@@H](CCCCNC(=O)N(Cc2ccccc2)C(C)C)C(=O)O)cc1 [Example 39, Nα-Isobutyl-Nα-(4-methylbenzenesulfonyl)-Nε-[(N′-benzyl-N′-iso-propyl)aminocarbonyl]-L-lysine]
Second: Cc1ccc(S(=O)(=O)N(CC(C)C)[C@@H](CCCCNC(=S)NCc2ccccc2)C(=O)O)cc1 [Example 16, Nα-Isobutyl-Nα-(4-methylbenzenesulfonyl)-Nε-benzylaminothiocarbonyl-L-lysine]
The Ki of the first is 8-fold lower: 0.019 µM for the first, 0.152 µM for the second. The first binds more tightly here.

`CC(C)CN([C@H](CO)CCCCNC(=O)N(Cc1ccc(F)cc1)Cc1cccnc1)S(=O)(=O)c1ccc(N)cc1` [Example 70, (2S) 2-N-(4-Aminobenzenesulfonyl)-2-N-isobutyl-6-N-[N′-(4-fluorobenzyl)-N′-(3-picolyl)aminocarbonyl]-2,6-diaminohexanol] and `Cc1ccc(S(=O)(=O)N(CC(C)C)[C@H](CO)CCCCNC(=O)N(Cc2ccccc2)Cc2ccc(N)cc2)cc1` [Example 64, (2S) 2-N-Isobutyl-2-N-(4-methylbenzenesulfonyl)-6-N-[N′-(4-aminobenzyl)-N′-benzylaminocarbonyl]-2,6-diaminohexanol] are within 1.5-fold of each other in Ki: 0.03 µM for the first, 0.021 µM for the second.

First: Cc1ccc(S(=O)(=O)N(CC(C)C)[C@@H](CCCCNC(=NC#N)NCc2ccccc2)C(=O)O)cc1 [Example 28, Nα-Isobutyl-Nα-(4-methylbenzenesulfonyl)-Nε-(benzylaminocarbonyl-N-cyanoamidine)-L-lysine]
Second: CC(C)CN([C@@H](CCCCNC(=O)NCc1ccccc1)C(=O)O)S(=O)(=O)c1ccc(N)cc1 [Example 18, Nα-(4-Aminobenzenesulfonyl)-Nα-isobutyl-Nε-benzylaminocarbonyl-L-lysine]
The Ki of the first is 3.2-fold lower: 0.063 µM for the first, 0.2 µM for the second. The first binds more tightly here.

Going from `Cc1ccc(S(=O)(=O)N(CC(C)C)[C@@H](CCCCNC(=O)N(Cc2ccccc2)Cc2ccccc2N)C(=O)O)cc1` [Example 57, Nα-Isobutyl-Nα-(4-methylbenzenesulfonyl)-Nε-[N′-(2-ninobenzyl)-N′-benzylaminocarbonyl]-L-lysine] to `Cc1ccc(S(=O)(=O)N(CC(C)C)[C@H](CO)CCCCNC(=O)N(Cc2ccccc2)Cc2ccccc2)cc1` [Example 33, (2S) 2-N-Isobutyl-2-N-(4-methylbenzenesullonyl)-6-N-(N′,N′-dibenzylaminocarbonyl)-2,6-diaminohexanol], the Ki rises from 0.0017 µM to 0.017 µM (10-fold).

First: Cc1ccc(S(=O)(=O)N(CC(C)C)[C@H](CO)CCCCNC(=O)N(Cc2ccccc2)Cc2cccc(N)c2)cc1 [Example 63, (2S) 2-N-Isobutyl-2-N-(4-methylbenzenesulfonyl)-6-N-[N′-(3-aminobenzyl)-N′-benzylaminocarbonyl]-2,6-diaminohexanol]
Second: COc1ccc(CN(Cc2ccncc2)C(=O)NCCCC[C@@H](CO)N(CC(C)C)S(=O)(=O)c2ccc(N)cc2)cc1 [Example 53, (2S) 2-N-(4-Aminobenzenesulfonyl)-2-N-isobutyl-6-N-[N′-(4-methoxybenzyl)-N′-(4-picolyl)aminocarbonyl]-2,6-diaminohexanol]
The Ki of the first is 1.7-fold lower: 0.054 µM for the first, 0.09 µM for the second. The first binds more tightly here.

Compared with `CC(C)CN([C@H](CO)CCCCNC(=O)NCc1ccc2c(c1)OCO2)S(=O)(=O)c1ccc(N)cc1` [Example 74, (2S) 2-N-(4-Aminobenzenesulfonyl)-2-N-isobutyl-6-N-piperonylaminocarbonyl-2,6-diaminohexanol], `CC(C)CN([C@H](CO)CCCCNC(=O)N[C@@H](Cc1c[nH]c2ccccc12)C(=O)O)S(=O)(=O)c1ccc(N)cc1` [Example 65, (2S,2′S) 2-N-(4-Aminobenzenesulfonyl)-2-N-isobutyl-6-N-(S-tryptophanyl-N′-carbonyl)-2,6-diaminohexanol] is higher in Ki: 0.022 µM for the first, > 0.3 µM for the second.

Compound `Cc1ccc(S(=O)(=O)N(CC(C)C)[C@@H](CCCCNC(=O)N(Cc2ccncc2)Cc2ccncc2)C(=O)O)cc1` [Example 44, Nα-Isobutyl-Nα-(4-methylbenzenesulfonyl)-Nε-[N′,N′-di-(4-picolyl)aminocarbonyl]-L-lysine] has a Ki of 0.187 µM.

Same assay, conditions: Ki, FRET substrate (EDANS/DABCYL), equation of Henderson

`Cc1ccc(S(=O)(=O)N(CC(C)C)[C@H](CO)CCCCNC(=O)N(Cc2ccccc2)Cc2ccc([N+](=O)[O-])cc2)cc1` [Example 61, (2S) 2-N-Isobutyl-2-N-(4-methylbenzenesulfonyl)-6-N-[N′-benzyl-N′-(4-nitrobenzyl)aminocarbonyl]-2,6-diaminohexanol] and `Cc1ccc(S(=O)(=O)N(CC(C)C)[C@H](CO)CCCCNC(=O)N(Cc2ccccc2)Cc2cccc([N+](=O)[O-])c2)cc1` [Example 60, (2S) 2-N-Isobutyl-2-N-(4-methylbenzenesulfonyl)-6-N-[N′-benzyl-N′-(3-nitrobenzyl)aminocarbonyl]-2,6-diaminohexanol] are within 1.5-fold of each other in Ki: 0.009 µM for the first, 0.006 µM for the second.

`CC(C)CN([C@H](CO)CCCCNC(=O)N(Cc1ccc(F)cc1)Cc1ccc2c(c1)OCO2)S(=O)(=O)c1ccc(N)cc1` [Example 67, (2S) 2-N-(4-Aminobenzenesulfonyl)-2-N-isobutyl-6-N-[N′-(4-fluorobenzyl)-N′-piperonylaminocarbonyl]-2,6-diaminohexanol] and `CC(C)CN([C@H](CO)CCCCNC(=O)N(Cc1ccccc1)Cc1ccc2c(c1)OCO2)S(=O)(=O)c1ccc(N)cc1` [Example 82, (2S) 2-N-(4-Aminobenzenesulfonyl)-2-N-isobutyl-6-N-(N′-benzyl-N′-piperonylaminocarbonyl)-2,6-diaminohexanol] are within 1.5-fold of each other in Ki: 0.002 µM for the first, 0.0026 µM for the second.
